Test results as given in ChEMBL document CHEMBL5620370, “1,3-Thiazole derivatives as privileged structures for anti-Trypanosoma cruzi activity: Rational design, synthesis, in silico and in vitro studies” (Eur J Med Chem, 2023).
Activity calls are given as the source filed them. The calls are words filed in the database; no cut-off is given here.

How the values were obtained:
Trypanosoma cruzi [1] = assay: Antitrypanosomal activity against Trypanosoma cruzi Dm28 epimastigotes assessed as inhibition of parasite growth incubated for 96 hrs by Neubauer chamber based analysis; type: functional, organism-based; conditions: Dm28, 96 h
[2] = Selectivity index, ratio of CC50 for cytotoxicity against mouse RAW264.7 cells to IC50 for antitrypanosomal activity against Trypanosoma cruzi Dm28 epimastigotes assessed as inhibition of parasite growth; type: toxicity, cell-based; conditions: read-out: Ratio CC50/IC50
Trypanosoma cruzi [3] = assay: Antitrypanosomal activity against Trypanosoma cruzi Tulahuen amastigotes transfected in L929 cells assessed as inhibition of parasite growth incubated for 96 hrs by CPRG based spectrophotometric analysis; type: functional, organism-based; conditions: L929, 96 h
[4] = Cytotoxicity against mouse RAW264.7 cells assessed as inhibition of cell growth incubated for 72 hrs by MTT assay; type: toxicity, cell-based
Trypanosoma cruzi [5] = assay: Antitrypanosomal activity against Trypanosoma cruzi Y strain trypomastigotes transfected in African green monkey Vero cells assessed as inhibition of parasite growth incubated for 24 hrs by Neubauer chamber based analysis; type: functional, organism-based
[6] = Selectivity index, ratio of CC50 for cytotoxicity against mouse RAW264.7 cells to IC50 for antitrypanosomal activity against Trypanosoma cruzi Y strain trypomastigotes transfected in African green monkey Vero cells assessed as inhibition of parasite growth; type: toxicity, cell-based; conditions: read-out: Ratio CC50/IC50
[7] = Selectivity index, ratio of CC50 for cytotoxicity against mouse RAW264.7 cells to IC50 for antitrypanosomal activity against Trypanosoma cruzi Tulahuen amastigotes transfected in L929 cells assessed as inhibition of parasite growth; type: toxicity, cell-based; conditions: read-out: Ratio CC50/IC50
Trypanosoma cruzi [8] = assay: Induction of apoptosis in Trypanosoma cruzi Y strain trypomastigotes assessed as early apoptosis at 1 times IC50 incubated for 24 hrs by Annexin V-FITC/7AAD staining based flow cytometry; type: functional, organism-based
Trypanosoma cruzi [9] = assay: Induction of apoptosis in Trypanosoma cruzi Y strain trypomastigotes assessed as early apoptosis at 2 times IC50 incubated for 24 hrs by Annexin V-FITC/7AAD staining based flow cytometry; type: functional, organism-based
Trypanosoma cruzi [10] = assay: Induction of apoptosis in Trypanosoma cruzi Y strain trypomastigotes assessed as late apoptosis at 1 times IC50 incubated for 24 hrs by Annexin V-FITC/7AAD staining based flow cytometry; type: functional, organism-based
Trypanosoma cruzi [11] = assay: Induction of apoptosis in Trypanosoma cruzi Y strain trypomastigotes assessed as necrosis at 1 times IC50 incubated for 24 hrs by Annexin V-FITC/7AAD staining based flow cytometry; type: functional, organism-based
Trypanosoma cruzi [12] = assay: Induction of apoptosis in Trypanosoma cruzi Y strain trypomastigotes assessed as late apoptosis at 50.9 uM incubated for 24 hrs by Annexin V-FITC/7AAD staining based flow cytometry; type: functional, organism-based
Trypanosoma cruzi [13] = assay: Induction of apoptosis in Trypanosoma cruzi Y strain trypomastigotes assessed as necrosis at 50.9 uM incubated for 24 hrs by Annexin V-FITC/7AAD staining based flow cytometry; type: functional, organism-based
Trypanosoma cruzi [14] = assay: Induction of mitochondrial membrane potential loss in Trypanosoma cruzi Y strain trypomastigotes at 1 times IC50 incubated for 24 hrs by Rhodamine 123 staining based flow cytometry; type: organism-based
Trypanosoma cruzi [15] = assay: Induction of mitochondrial membrane potential loss in Trypanosoma cruzi Y strain trypomastigotes at 2 times IC50 incubated for 24 hrs by Rhodamine 123 staining based flow cytometry; type: organism-based
Trypanosoma cruzi [16] = assay: Induction of DNA damage in Trypanosoma cruzi Y strain trypomastigotes at 2 times IC50 incubated for 24 hrs by acridine orange staining based flow cytometry; type: functional, organism-based
Trypanosoma cruzi [17] = assay: Induction of DNA damage in Trypanosoma cruzi Y strain trypomastigotes at 1 times IC50 incubated for 24 hrs by acridine orange staining based flow cytometry; type: functional, organism-based
Trypanosoma cruzi [18] = assay: Induction of apoptosis in Trypanosoma cruzi Y strain trypomastigotes assessed as late apoptosis at 9.64 uM incubated for 24 hrs by Annexin V-FITC/7AAD staining based flow cytometry; type: functional, organism-based
Trypanosoma cruzi [19] = assay: Induction of apoptosis in Trypanosoma cruzi Y strain trypomastigotes assessed as necrosis at 9.64 uM incubated for 24 hrs by Annexin V-FITC/7AAD staining based flow cytometry; type: functional, organism-based
Trypanosoma cruzi [20] = assay: Induction of apoptosis in Trypanosoma cruzi Y strain trypomastigotes assessed as fold increase in early apoptosis incubated for 24 hrs by Annexin V-FITC/7AAD staining based flow cytometry; type: functional
Trypanosoma cruzi [21] = assay: Induction of apoptosis in Trypanosoma cruzi Y strain trypomastigotes assessed as fold increase in late apoptosis incubated for 24 hrs by Annexin V-FITC/7AAD staining based flow cytometry; type: functional
Trypanosoma cruzi [22] = assay: Induction of apoptosis in Trypanosoma cruzi Y strain trypomastigotes assessed as late apoptosis at 131.92 uM incubated for 24 hrs by Annexin V-FITC/7AAD staining based flow cytometry; type: functional, organism-based
Trypanosoma cruzi [23] = assay: Induction of apoptosis in Trypanosoma cruzi Y strain trypomastigotes assessed as necrosis at 131.92 uM incubated for 24 hrs by Annexin V-FITC/7AAD staining based flow cytometry; type: functional, organism-based

Structure (SMILES) | IC50 (Trypanosoma cruzi [1]) [µM] | selectivity ratio [2] | IC50 (Trypanosoma cruzi [3]) [µM] | CC50 at 72 h [4] [µM] | IC50 (Trypanosoma cruzi [5]) [µM] | selectivity ratio [6] | selectivity ratio [7] | further results
COc1ccc(-c2csc(N/N=C(\C)c3ccc(Cl)c(Cl)c3Cl)n2)cc1 | 7.88 | 3.43 | 7.84 | 27.1 | 30.9 | 0.87 | 3.45 | –
C/C(=N\Nc1nc(-c2ccccc2)cs1)c1ccc(Cl)c(Cl)c1Cl | 13.8 | 2.18 | 20.6 | 30.2 | 11.5 | 2.61 | 1.46 | –
C/C(=N\Nc1nc(-c2ccc(Cl)c(Cl)c2)cs1)c1ccc(Cl)c(Cl)c1Cl | 32.1 | 1.39 | 25.4 | 44.9 | 25.4 | 1.76 | 1.76 | Activity (Trypanosoma cruzi [8]): Active; Activity (Trypanosoma cruzi [9]): Active; Activity (Trypanosoma cruzi [10]): Active; Activity (Trypanosoma cruzi [11]): Active; Activity (Trypanosoma cruzi [12]): Active; Activity (Trypanosoma cruzi [13]): Active; Activity (Trypanosoma cruzi [14]): Active; Activity (Trypanosoma cruzi [15]): Active; Activity (Trypanosoma cruzi [16]): inactive; Activity (Trypanosoma cruzi [17]): inactive
C/C(=N\Nc1nc(-c2cccc([N+](=O)[O-])c2)cs1)c1ccc(Cl)c(Cl)c1Cl | 8.42 | 3.47 | 4.46 | 29.2 | – | – | 6.55 | –
COc1ccc(-c2csc(N/N=C(\C)c3ccc(Cl)cc3Cl)n2)cc1 | 3.48 | 12.4 | 3.65 | 43.1 | 45.3 | 0.95 | 11.8 | Activity (Trypanosoma cruzi [8]): Active; Activity (Trypanosoma cruzi [9]): Active; Activity (Trypanosoma cruzi [10]): Active; Activity (Trypanosoma cruzi [11]): Active; Activity (Trypanosoma cruzi [14]): Active; Activity (Trypanosoma cruzi [15]): Active; Activity (Trypanosoma cruzi [16]): inactive; Activity (Trypanosoma cruzi [17]): inactive
C/C(=N\NC1NC(=O)CS1)c1ccc(Cl)cc1Cl (stereo unspecified) | – | – | – | – | 1.12 | – | – | –
C/C(=N\Nc1nc(-c2ccc(Cl)cc2)cs1)c1ccc(Cl)cc1Cl | 7.55 | 7.3 | 10.6 | 55.1 | 17.9 | 3.07 | 5.21 | –
C/C(=N\Nc1nc(-c2ccc(-c3ccccc3)cc2)cs1)c1ccc(Cl)c(Cl)c1Cl | 8.62 | 7.22 | 12.9 | 62.2 | 2.64 | 23.6 | 4.83 | –
C/C(=N\Nc1nc(-c2ccc(-c3ccccc3)cc2)cs1)c1ccc(Cl)cc1Cl | 20.2 | 3.96 | 14.9 | 80.1 | 10.6 | 7.58 | 5.38 | –
C/C(=N\Nc1nc(-c2ccc(Cl)c(Cl)c2)cs1)c1ccc(Cl)cc1Cl | 6.41 | 15.2 | 28.3 | 97.3 | 4.82 | 20.2 | 3.44 | Activity (Trypanosoma cruzi [8]): Active; Activity (Trypanosoma cruzi [9]): Active; Activity (Trypanosoma cruzi [10]): Active; Activity (Trypanosoma cruzi [11]): Active; Activity (Trypanosoma cruzi [18]): Active; Activity (Trypanosoma cruzi [19]): Active; fold change (FC) (Trypanosoma cruzi [20]): 5; fold change (FC) (Trypanosoma cruzi [21]): 4; Activity (Trypanosoma cruzi [14]): inactive; Activity (Trypanosoma cruzi [15]): inactive; Activity (Trypanosoma cruzi [16]): Active
C/C(=N\Nc1nc(-c2ccc(Cl)cc2Cl)cs1)c1ccc(Cl)c(Cl)c1Cl | 8.33 | 4.35 | 13.6 | 36.3 | 4.08 | 8.89 | 2.67 | –
O=C(Cn1ccnc1[N+](=O)[O-])NCc1ccccc1 [BENZNIDAZOLE] | 56.9 | 0.77 | 5.64 | 44.2 | 41 | 1.07 | 7.83 | –
C/C(=N\Nc1nc(-c2ccc3ccccc3c2)cs1)c1ccc(Cl)c(Cl)c1Cl | 10.9 | 8.86 | 25.4 | 96.2 | 66 | 1.45 | 3.79 | Activity (Trypanosoma cruzi [8]): Active; Activity (Trypanosoma cruzi [9]): Active; Activity (Trypanosoma cruzi [10]): Active; Activity (Trypanosoma cruzi [11]): Active; Activity (Trypanosoma cruzi [22]): Active; Activity (Trypanosoma cruzi [23]): Active; Activity (Trypanosoma cruzi [14]): inactive; Activity (Trypanosoma cruzi [15]): inactive; Activity (Trypanosoma cruzi [16]): inactive; Activity (Trypanosoma cruzi [17]): inactive
C/C(=N\Nc1nc(-c2ccc([N+](=O)[O-])cc2)cs1)c1ccc(Cl)c(Cl)c1Cl | 28.9 | 3.05 | 45.3 | 88.5 | – | – | 1.95 | –
C/C(=N\Nc1nc(-c2ccc(F)cc2)cs1)c1ccc(Cl)c(Cl)c1Cl | 19.4 | 2.17 | 27.9 | 42.2 | 21.5 | 1.96 | 1.51 | Activity (Trypanosoma cruzi [8]): Active; Activity (Trypanosoma cruzi [9]): Active; Activity (Trypanosoma cruzi [10]): Active; Activity (Trypanosoma cruzi [11]): Active; Activity (Trypanosoma cruzi [14]): inactive; Activity (Trypanosoma cruzi [15]): inactive; Activity (Trypanosoma cruzi [16]): Active; Activity (Trypanosoma cruzi [17]): Active
C/C(=N\Nc1nc(-c2ccc(Cl)cc2)cs1)c1ccc(Cl)c(Cl)c1Cl | 10.6 | 3.73 | 8.71 | 39.6 | 3.27 | 12.1 | 4.55 | –
C/C(=N\Nc1nc(-c2ccc(Br)cc2)cs1)c1ccc(Cl)c(Cl)c1Cl | 5.25 | 5.68 | 5.96 | 29.9 | – | – | 5 | –
C/C(=N\Nc1nc(-c2ccccc2)cs1)c1ccc(Cl)cc1Cl | 7.42 | 5.76 | 21.3 | 42.8 | 45.9 | 0.93 | 2 | –
